In patent US7511074B2, “Tetrafluorobenzyl derivatives and pharmaceutical composition for preventing and treating acute and chronic neurodegenerative diseases in central nervous system containing the same” (AmKor Pharma, Inc., priority 2002, dated 2009):

Legend:
[1] = system: C57/BL6 mice, MPTP; experiment: Dopaminergic neuronal death in substantia nigra after MPTP injection; format: in vivo, mouse; details: 25 or 50 mg/kg ip every 12 hr, MPTP 40 mg/kg s.c.
Description: (§1) Bright field photomicrographs showing dopaminergic neurons in the substantia nigra immunostained with anti-tyrosine hydroxylase (TH) antibody 3 d following sham control (A) or the single daily injection of 1-methyl-4-phenyl-1,2,3,6-tetrahydropyridine (MPTP, 40 mg/kg, SC) in C57/BL6 mice, alone (B) or with intraperitoneal injections (2 times per day) of 2-Hydroxy-TTBA (C, 25 mg/kg; D, 50 mg/kg) prior to MPTP administration.
Quantification of TH-positive dopaminergic neurons in the substantia nigral sections 3 d following the single daily injection of (MPTP, 40 mg/kg, SC), alone or with pretreatment with 2-Hydroxy-TTBA as described above. *, Significant difference from the control, p<0.05 using ANOVA and Student-Neuman-Keuls' test.
as §1, with “antibody […]” for “antibody 3”
C57/BL6 mice (male, 8 weeks) received the injections of 40 mg/kg MPTP (s.c.), alone or with 25 or 50 mg/kg 2-Hydroxy-TTBA (ip) every 12 hr per day beginning 30 min before MPTP injection. […]

[2] = system: Sprague-Dawley rats, compression of T8 spinal cord; experiment: Mitochondrial ROS production after traumatic spinal cord injury; format: in vivo, rat; details: 50 mg/kg ip immediately after injury; analyzed 48 hr later
Description: Adult rats received compression injury at the level of T8 spinal cord, alone (control) or with injections of 2-Hydroxy-TTBA (50 mg/kg, ip) and Mitotracker CM-H2X ROS immediately after injury. Animals were euthanized 2 d later, spinal cord sections sections immunostained with an antibody for NeuN (a neuronal marker protein), and levels of mitochondrial ROS in the dorsal horn neurons (DHN) analyzed by measuring fluorescence intensity of oxidized Mitotracker CM-H2X, mean ±S.E.M. [n=12 rats for each condition (5 spinal cord sections for each rat)]. *, Significant difference from the vehicle control, p<0.05 using the independent t-test.
Sprague-Dawley rats (250-300 g, female) received traumatic spinal cord injury by compression of the dorsal spinal cord. T8 segment of spinal cord was exposed on the dorsal side, compressed with 20 g for 10 min, and then mitochondrial CM-H2X Ros was immediately injected into the spinal cord. 2-Hydroxy-TTBA (50 mg/kg, ip) or a vehicle control (control) was injected with mitochondrial CM-H2X Ros. Levels of mitochondrial ROS in the dorsal horn neurons were analyzed 48 hr later as described above after immunolabeling with anti-NeuN antibody, a neuron-specific marker.

Q: With `O=C(O)c1cc(NCc2c(F)c(F)c(C(F)(F)F)c(F)c2F)ccc1O` [2-Hydroxy-TTBA, 2-hydroxy-5-(2,3,5,6-tetrafluoro-4-trifluoromethylbenzylamino)benzoic acid] as the molecule, how does the “degeneration of dopaminergic neurons in substantia nigra, 3 d” value ([1]; 3 d) read?
A: significantly attenuated degeneration

Q: What about the “protective effects on dopaminergic neurons, 7 d” value ([1]; 7 d) of the same molecule?
A: protective effects of 2-Hydroxy-TTBA are also observed

Q: What about the “mitochondrial ROS production in spinal cord neurons” value [2] of the same molecule?
A: significantly reduced mitochondrial ROS production
